In publication PMC9452538, “The antimicrobial peptide LI14 combats multidrug-resistant bacterial infections” (Communications Biology, 2022):
In brackets after ≈: the same amount, converted by molar mass. Where two headings read alike, the source gives them in different places. Peptide text beside a SMILES is read from it.

Tests used:
P. aeruginosa PA14 = experiment: microbe, parasite or virus in culture; type: cell-based, Pseudomonas aeruginosa; conditions: PA14
How it was run: (§1)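 Bacteria are grown to exponential phase, diluted 1:1000 in MHB, then combined at 1.5 × 10^6 CFUs/mL with different peptide concentrations. MICs follow standard CLSI2021 broth micro-dilution.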

E. coli C3 (blaNDM-1) = experiment: microbe, parasite or virus in culture; type: cell-based, Escherichia coli; conditions: C3 (blaNDM-1)
How it was run: as §1

E. coli G92 (mcr-1) = experiment: microbe, parasite or virus in culture; type: cell-based, Escherichia coli; conditions: G92 (mcr-1)
How it was run: as §1

CD-1 mice = type: in vivo; conditions: 10 mg/kg i.p. daily for 6 days, n = 4
Protocol: LI14 (10 mg/kg, body weight) was intra-peritoneally injected into CD-1 mice (n = 4 biologically independent animals per group) every day for 6 days[64]. Mice were weighed daily and the behaviors of the mice were inspected for one week. Blood from mice was collected on the seventh day for whole-blood cell analysis and kidney chemistry profile. At the same time, the heart, liver, spleen, lung, and kidney of mice were collected for H.E. staining.
Supplementary Fig. 5 In vivo toxicity assessment of LI14 peptide.
(a) Scheme of the LI14 peptide toxicity study in mice. CD-1 female mice (n = 4 biologically independent animals per group) were intraperitoneally administered with LI14 (10 mg/kg) daily […]. (b-e) Body weight (b), whole-blood cell profiles (c), serum biochemical […]
(1 picture or pasted object on this page, not shown here)

MRSA 1530 = experiment: microbe, parasite or virus in culture; type: cell-based, Staphylococcus aureus; conditions: 1530
How it was run: as §1

E. faecium 5F-10 = experiment: microbe, parasite or virus in culture; type: cell-based, Enterococcus faecium; conditions: 5F-10
How it was run: as §1

MRSA T144 [1] = type: cell-based, Staphylococcus aureus; conditions: MRSA T144
Protocol: (§2) MRSA T144 and E. coli B2 in the exponential growth phase were incubated with LI14 peptide supplemented with 10 mM Na^+, K^+, Mg^2+, 10% Dulbecco’s modified Eagle medium (DMEM), and 10% fetal bovine serum (FBS) for 16–18 h. The stability of LI14 was evaluated by the change of its antibacterial activity under different conditions.
(§3) LI14 were preincubated for 1 h at various temperatures (40–121 °C), pH (2–12), and proteases (pepsin, trypsin, and papain, final concentration 1 mg/mL). […] Following the incubation with the proteases, the leftover protease was precipitated with acetonitrile and removed by centrifugation at 3000 × g, followed by a MIC test.
(§4) Supplementary Table 4 Thermal, pH, salts and protease stability of AMPs against
(§5) MRSA T144 and E. coli B2 (MIC, μg/mL).
(§6) Treatment MRSA T144 E. coli B2

E. coli B2 persisters = experiment: Bactericidal activity against persisters; type: cell-based, Escherichia coli
Protocol: Briefly, the bacteria suspensions after washing were exposed to 50-fold MIC concentrations of vancomycin and tigecycline, respectively, and co-incubation for 4 h to obtain persister cells. […] Subsequently, the primary CFUs/mL were calculated.

E. coli B2 [2] = experiment: Galleria mellonella infection model; type: in vivo; conditions: E. coli B2 infected G. mellonella; 50 mg/kg of LI14 at 1 h after infection; 7 days; n = 8
Protocol: (§7) Galleria mellonella larvae (supplied by Huiyude Biotech Company, Tianjin, China) were separated into six groups (n = 8 biologically independent animals per group) and infection models by injecting MRSA T144 and E. coli B2 cultures, respectively (10 µL, 1.0 × 10^5 CFUs per larvae) into the right posterior gastropoda[42],[48]. The infected larvae were treated by giving LI14 peptide (10, 20, 50 mg/kg), ampicillin/rifampicin (10 mg/kg) or a mixture of LI14 with ampicillin/rifampicin (10 + 10 mg/kg) in the left posterior gastropoda after 1 h infection, with the PBS injection group serving as a control treatment. Within 7 days, survival rates of Galleria mellonella larvae were inspected and recorded.

MRSA T144 [3] = experiment: Galleria mellonella infection model; type: in vivo; conditions: MRSA T144 infected G. mellonella; 50 mg/kg of LI14 at 1 h after infection; 7 days; n = 8
Protocol: as §7

S. aureus ATCC 29213 [4] = experiment: microbe, parasite or virus in culture; type: cell-based, Staphylococcus aureus; conditions: ATCC 29213
How it was run: as §1

MRSA T144 [5] = experiment: microbe, parasite or virus in culture; type: cell-based, Staphylococcus aureus; conditions: T144
How it was run: as §1

E. faecalis 1F-1 = experiment: microbe, parasite or virus in culture; type: cell-based; conditions: 1F-1
How it was run: as §1

[6] = system: S. enteritidis ATCC 13076; experiment: microbe, parasite or virus in culture; type: cell-based; conditions: ATCC 13076
How it was run: as §1

[7] = system: E. faecalis A4 (VRE, VanA); experiment: microbe, parasite or virus in culture; type: cell-based; conditions: A4 (VRE, VanA)
How it was run: as §1

S. aureus ATCC 29213 [8] = experiment: Resistance development study, serial passages; type: cell-based, Staphylococcus aureus; conditions: 80 serial passages at sub-inhibitory concentration (0.5-fold MIC)
Protocol: The ability of LI14 peptide to induce resistance was studied as previously described. Resistance to the therapeutically important drugs rifampicin and ciprofloxacin was measured using S. aureus ATCC 29213 and E. coli ATCC 25922 as test strains. The middle and final MICs were monitored after eighty such serial passages exposed to the tested medicines (0.5-fold MIC), and the fold change in MIC increase was recorded.

E. coli B2 [9] = type: cell-based, Escherichia coli; conditions: E. coli B2
Protocol: as §2, §3, §4, §5, §6

[10] = peptide preincubated 1 h at 40℃
[11] = peptide preincubated 1 h at 60℃
[12] = peptide preincubated 1 h at 80℃
[13] = peptide preincubated 1 h at pH 8, readjusted to pH 7.2
[14] = peptide preincubated 1 h at pH 12, readjusted to pH 7.2

**Q.** `CC[C@H](C)[C@H](NC(=O)[C@H](CCCNC(=N)N)NC(=O)[C@H](CS)NC(=O)[C@H](CC(C)C)NC(=O)[C@H](CCCCN)NC(=O)[C@H](CCCCN)NC(=O)[C@H](CC(C)C)NC(=O)[C@@H](NC(=O)[C@H](CCCNC(=N)N)NC(=O)[C@H](CS)NC(=O)[C@H](CC(C)C)NC(=O)[C@H](CCCCN)NC(=O)[C@H](CCCCN)NC(=O)[C@@H](N)CC(C)C)[C@@H](C)CC)C(N)=O` [LI14] (H-LKKLCRILKKLCRI-NH2) was tested. Which MIC (P. aeruginosa PA14) did it give?
**A.** The MIC was 16 µg/mL (≈ 9.26 µM).

**Q.** And the MIC (E. coli C3 (blaNDM-1))?
**A.** Its MIC is 4 µg/mL (≈ 2.32 µM).

**Q.** What about the MIC (E. coli G92 (mcr-1)) of the same compound?
**A.** The MIC was 8 µg/mL (≈ 4.63 µM).

**Q.** What about the “Behavior and body weight” value (CD-1 mice) of the same compound?
**A.** Its value is “did not observe murine behavior changes or body weight loss”.

**Q.** And the “H.E. staining of heart, liver, spleen, lung, kidney” value (CD-1 mice)?
**A.** The value was “no significant difference in histological morphology”.

**Q.** And the “Whole-blood cell profiles and serum biochemical index” value (CD-1 mice)?
**A.** The value was “no significant difference compared with the control group”.

**Q.** What about the MIC (MRSA 1530) of the same compound?
**A.** Its MIC is 64 µg/mL (≈ 37.1 µM).

**Q.** And the MIC (E. faecium 5F-10)?
**A.** The MIC was 64 µg/mL (≈ 37.1 µM).

**Q.** And the MIC (MRSA T144 [1]; Control)?
**A.** The MIC was 4 µg/mL (≈ 2.32 µM).

**Q.** What about the MIC (MRSA T144 [1]; [10]) of the same compound?
**A.** The MIC was 4 µg/mL (≈ 2.32 µM).

**Q.** And the MIC (MRSA T144 [1]; [11])?
**A.** Its MIC is 4 µg/mL (≈ 2.32 µM).

**Q.** What about the MIC (MRSA T144 [1]; [12]) of the same compound?
**A.** Its MIC is 4 µg/mL (≈ 2.32 µM).

**Q.** What about the MIC (MRSA T144 [1]; [13]) of the same compound?
**A.** Its MIC is 4 µg/mL (≈ 2.32 µM).

**Q.** What about the MIC (MRSA T144 [1]; [14]) of the same compound?
**A.** The MIC was 4 µg/mL (≈ 2.32 µM).

**Q.** What about the MIC (MRSA T144 [1]; peptide preincubated 1 h with Pepsin 1 mg/mL) of the same compound?
**A.** Its MIC is 4 µg/mL (≈ 2.32 µM).

**Q.** What about the “Removal rate of persisters” value (E. coli B2 persisters; 128 μg/mL of LI14) of the same compound?
**A.** The value was “more than 99%”.

**Q.** What about the “Clearance rate against persisters” value (E. coli B2 persisters; within 2 h) of the same compound?
**A.** Its value is “above 99%”.

**Q.** And the “Survival rate of larvae” value (E. coli B2 [2])?
**A.** The value was 75%.

**Q.** And the “Survival rate of larvae” value (MRSA T144 [3])?
**A.** Its value is 100%.

**Q.** And the MIC (S. aureus ATCC 29213 [4])?
**A.** The MIC was 8 µg/mL (≈ 4.63 µM).

**Q.** What about the MIC (MRSA T144 [5]) of the same compound?
**A.** The MIC was 4 µg/mL (≈ 2.32 µM).

**Q.** What about the MIC (E. faecalis 1F-1) of the same compound?
**A.** The MIC was 64 µg/mL (≈ 37.1 µM).

**Q.** And the MIC [6]?
**A.** Its MIC is 8 µg/mL (≈ 4.63 µM).

**Q.** And the MIC [7]?
**A.** Its MIC is 8 µg/mL (≈ 4.63 µM).

**Q.** What about the “Increase in MIC after serial passages” value (S. aureus ATCC 29213 [8]) of the same compound?
**A.** Its value is 8 fold.

**Q.** And the MIC (E. coli B2 [9]; Control)?
**A.** The MIC was 4 µg/mL (≈ 2.32 µM).

**Q.** And the MIC (E. coli B2 [9]; KCl 10 mM)?
**A.** Its MIC is 4 µg/mL (≈ 2.32 µM).

**Q.** And the MIC (E. coli B2 [9]; NaCl 10 mM)?
**A.** Its MIC is 4 µg/mL (≈ 2.32 µM).

**Q.** What about the MIC (E. coli B2 [9]; Serum (10%), fetal bovine serum) of the same compound?
**A.** Its MIC is 4 µg/mL (≈ 2.32 µM).

**Q.** What about the MIC (E. coli B2 [9]; [10]) of the same compound?
**A.** Its MIC is 4 µg/mL (≈ 2.32 µM).

**Q.** And the MIC (E. coli B2 [9]; [11])?
**A.** Its MIC is 4 µg/mL (≈ 2.32 µM).

**Q.** And the MIC (E. coli B2 [9]; [12])?
**A.** The MIC was 4 µg/mL (≈ 2.32 µM).

**Q.** And the MIC (E. coli B2 [9]; peptide preincubated 1 h at 121℃)?
**A.** The MIC was 4 µg/mL (≈ 2.32 µM).

**Q.** What about the MIC (E. coli B2 [9]; peptide preincubated 1 h at pH 2, readjusted to pH 7.2) of the same compound?
**A.** The MIC was 4 µg/mL (≈ 2.32 µM).

**Q.** What about the MIC (E. coli B2 [9]; peptide preincubated 1 h at pH 4, readjusted to pH 7.2) of the same compound?
**A.** Its MIC is 4 µg/mL (≈ 2.32 µM).

**Q.** What about the MIC (E. coli B2 [9]; peptide preincubated 1 h at pH 6, readjusted to pH 7.2) of the same compound?
**A.** The MIC was 4 µg/mL (≈ 2.32 µM).

**Q.** And the MIC (E. coli B2 [9]; [13])?
**A.** Its MIC is 4 µg/mL (≈ 2.32 µM).

**Q.** What about the MIC (E. coli B2 [9]; peptide preincubated 1 h at pH 10, readjusted to pH 7.2) of the same compound?
**A.** The MIC was 4 µg/mL (≈ 2.32 µM).

**Q.** What about the MIC (E. coli B2 [9]; [14]) of the same compound?
**A.** The MIC was 4 µg/mL (≈ 2.32 µM).
